Experiments:
[1] = target: Macrophage colony-stimulating factor 1 receptor (Homo sapiens, UniProt P07333); assay: Inhibition of human full length His-tagged CSF1R expressed in baculovirus by Z'Lyte assay
[2] = Half life in rat liver microsomes at 1 uM in presence of NADPH by LC-MS/MS; assay type: ADME, microsome
[3] = system: Mast/stem cell growth factor receptor Kit (Homo sapiens), P10721 [V654A]
Description: Inhibition of TEL-fused cKIT V654A mutant (unknown origin) expressed in mouse BAF3 cells assessed as cell growth inhibition after 72 hrs by cell titer-glo assay

[4] = Cmax in Sprague-Dawley rat at 2 mg/kg, iv up to 24 hrs post dose by LC/MS/MS analysis; assay type: ADME, organism-based; parameters: dose 2 mg/kg, route intravenous; conditions: in vivo
[5] = MRT (0 to t) in Sprague-Dawley rat at 2 mg/kg, iv up to 24 hrs post dose by LC/MS/MS analysis; assay type: ADME, organism-based; conditions: in vivo
MEG-01 = assay: Antiproliferative activity against human MEG01 cells assessed as cell growth inhibition after 72 hrs by cell titer-glo assay; assay type: functional; conditions: MEG-01, 72 h
[6] = target: Receptor-type tyrosine-protein kinase FLT3 (Homo sapiens, UniProt P36888); assay: Inhibition of human His-tagged FLT3 (564 to 958 residues) expressed in baculovirus by ELISA
Sequence of Receptor-type tyrosine-protein kinase FLT3 (P36888 whole entry, the tested form may be a part): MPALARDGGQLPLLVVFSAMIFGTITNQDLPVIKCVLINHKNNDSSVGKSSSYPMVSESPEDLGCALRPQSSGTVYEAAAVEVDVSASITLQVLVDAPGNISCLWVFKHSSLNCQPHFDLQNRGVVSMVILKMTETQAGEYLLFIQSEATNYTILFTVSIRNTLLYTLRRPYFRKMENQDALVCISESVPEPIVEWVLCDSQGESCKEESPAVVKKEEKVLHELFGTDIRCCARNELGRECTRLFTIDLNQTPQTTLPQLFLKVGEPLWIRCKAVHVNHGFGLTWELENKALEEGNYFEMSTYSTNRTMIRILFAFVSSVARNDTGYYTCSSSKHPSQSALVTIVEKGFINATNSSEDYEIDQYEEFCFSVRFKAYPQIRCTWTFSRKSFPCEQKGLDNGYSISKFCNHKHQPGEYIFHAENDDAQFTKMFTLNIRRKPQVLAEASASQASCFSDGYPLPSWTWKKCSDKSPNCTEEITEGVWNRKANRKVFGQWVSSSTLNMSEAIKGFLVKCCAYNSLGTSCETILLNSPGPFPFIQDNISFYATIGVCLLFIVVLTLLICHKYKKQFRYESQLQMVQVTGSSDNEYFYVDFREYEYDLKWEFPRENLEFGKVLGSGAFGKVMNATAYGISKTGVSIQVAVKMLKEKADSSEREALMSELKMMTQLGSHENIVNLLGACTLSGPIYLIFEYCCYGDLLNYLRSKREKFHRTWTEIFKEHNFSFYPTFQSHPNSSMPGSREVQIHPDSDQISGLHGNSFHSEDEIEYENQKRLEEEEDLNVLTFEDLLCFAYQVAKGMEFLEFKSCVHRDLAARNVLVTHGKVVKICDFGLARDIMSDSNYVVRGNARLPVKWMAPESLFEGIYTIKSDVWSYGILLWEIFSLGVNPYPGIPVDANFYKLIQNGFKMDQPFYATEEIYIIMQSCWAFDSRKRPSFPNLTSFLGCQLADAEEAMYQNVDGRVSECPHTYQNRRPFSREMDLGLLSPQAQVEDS

[7] = Apparent clearance in Sprague-Dawley rat at 2 mg/kg, iv up to 24 hrs post dose by LC/MS/MS analysis; assay type: ADME, organism-based; conditions: in vivo, read-out: CL(app) (converted)
[8] = Volume of distribution at steady state in Sprague-Dawley rat at 2 mg/kg, iv up to 24 hrs post dose by LC/MS/MS analysis; assay type: ADME, organism-based; conditions: in vivo, read-out: Vdss
[9] = target: Vascular endothelial growth factor receptor 2 (Homo sapiens, UniProt P35968)
Description: Inhibition of VEGFR2 (unknown origin) using FAM-labeled peptide as substrate preincubated for 10 mins followed by substrate addition in presence of ATP by mobility shift assay

[10] = Half life in Sprague-Dawley rat at 25 mg/kg, ip up to 24 hrs post dose by LC/MS/MS analysis; assay type: ADME, organism-based; conditions: in vivo
[11] = MRT (0 to t) in Sprague-Dawley rat at 25 mg/kg, ip up to 24 hrs post dose by LC/MS/MS analysis; assay type: ADME, organism-based; conditions: in vivo
[12] = system: Platelet-derived growth factor receptor alpha (Homo sapiens), P16234 [T674I]
Description: Inhibition of TEL-fused PDGFRalpha T674I mutant (unknown origin) expressed in mouse BAF3 cells assessed as cell growth inhibition after 72 hrs by cell titer-glo assay

[13] = system: Mast/stem cell growth factor receptor Kit (Homo sapiens), P10721 [V559D]
Sequence of Mast/stem cell growth factor receptor Kit (Homo sapiens), P10721 [V559D] (P10721 whole entry V559D): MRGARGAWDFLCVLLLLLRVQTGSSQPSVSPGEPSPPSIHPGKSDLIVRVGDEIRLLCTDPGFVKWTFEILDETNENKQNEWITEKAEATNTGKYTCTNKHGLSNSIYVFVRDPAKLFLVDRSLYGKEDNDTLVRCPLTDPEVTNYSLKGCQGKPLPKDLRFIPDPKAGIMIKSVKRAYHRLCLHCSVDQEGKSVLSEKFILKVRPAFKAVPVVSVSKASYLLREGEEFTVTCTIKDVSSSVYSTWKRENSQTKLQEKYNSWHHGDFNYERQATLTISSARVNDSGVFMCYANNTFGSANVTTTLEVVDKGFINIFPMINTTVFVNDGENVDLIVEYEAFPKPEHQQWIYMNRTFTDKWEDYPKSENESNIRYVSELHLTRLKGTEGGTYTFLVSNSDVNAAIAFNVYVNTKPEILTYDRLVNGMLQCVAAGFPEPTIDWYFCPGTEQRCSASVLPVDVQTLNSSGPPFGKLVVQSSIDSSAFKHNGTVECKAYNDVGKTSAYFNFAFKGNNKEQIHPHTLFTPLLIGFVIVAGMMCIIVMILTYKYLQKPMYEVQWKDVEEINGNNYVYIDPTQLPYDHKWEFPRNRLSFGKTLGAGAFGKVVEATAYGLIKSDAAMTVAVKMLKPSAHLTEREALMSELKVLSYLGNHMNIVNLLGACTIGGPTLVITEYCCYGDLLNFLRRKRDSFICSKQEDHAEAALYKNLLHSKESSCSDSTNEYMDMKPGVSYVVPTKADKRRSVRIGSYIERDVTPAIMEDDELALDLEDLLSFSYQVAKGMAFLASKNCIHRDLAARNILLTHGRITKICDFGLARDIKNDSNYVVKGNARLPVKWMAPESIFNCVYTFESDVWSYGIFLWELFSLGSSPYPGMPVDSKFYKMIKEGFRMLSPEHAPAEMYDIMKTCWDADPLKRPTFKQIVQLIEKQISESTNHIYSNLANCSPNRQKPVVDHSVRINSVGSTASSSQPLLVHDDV

[14] = AUC (0 to infinity) in Sprague-Dawley rat at 25 mg/kg, ip up to 24 hrs post dose by LC/MS/MS analysis; assay type: ADME, organism-based; parameters: dose 25 mg/kg, time infinity, route intraperitoneal; conditions: in vivo
[15] = Cmax in Sprague-Dawley rat at 25 mg/kg, ip up to 24 hrs post dose by LC/MS/MS analysis; assay type: ADME, organism-based; parameters: dose 25 mg/kg, route intraperitoneal; conditions: in vivo
KU812 cell line = assay: Antiproliferative activity against human KU812 cells assessed as cell growth inhibition after 72 hrs by cell titer-glo assay; assay type: functional; conditions: KU812, 72 h
[16] = Tmax in Sprague-Dawley rat at 100 mg/kg, ip up to 24 hrs post dose by LC/MS/MS analysis; assay type: ADME, organism-based; conditions: in vivo
[17] = target: Voltage-gated inwardly rectifying potassium channel KCNH2 (Homo sapiens, UniProt Q12809); assay: Inhibition of human ERG expressed in CHO cells by whole cell patch clamp assay; assay type: cell-based
[18] = AUC (0 to infinity) in Sprague-Dawley rat at 2 mg/kg, iv up to 24 hrs post dose by LC/MS/MS analysis; assay type: ADME, organism-based; parameters: dose 2 mg/kg, route intravenous, time infinity; conditions: in vivo
[19] = AUC (0 to t) in Sprague-Dawley rat at 100 mg/kg, ip up to 24 hrs post dose by LC/MS/MS analysis; assay type: ADME, organism-based; parameters: dose 100 mg/kg, time < 24 hr, route intraperitoneal; conditions: in vivo
[20] = system: Mast/stem cell growth factor receptor Kit (Homo sapiens), P10721 [A829P]
Description: Inhibition of TEL-fused cKIT A829P mutant (unknown origin) expressed in mouse BAF3 cells assessed as cell growth inhibition after 72 hrs by cell titer-glo assay

[21] = system: Mast/stem cell growth factor receptor Kit (Homo sapiens), P10721 [V559D,V654A]
Sequence of Mast/stem cell growth factor receptor Kit (Homo sapiens), P10721 [V559D,V654A] (P10721 whole entry V559D/V654A, the tested form may be a part): as the sequence (P10721 whole entry V559D) above, with V654A counted along it

[22] = target: Proto-oncogene tyrosine-protein kinase receptor Ret (Homo sapiens, UniProt P07949); assay: Inhibition of human GST-tagged RET (658 to 1114 residues) expressed in baculovirus by ELISA
Sequence of Proto-oncogene tyrosine-protein kinase receptor Ret (P07949 whole entry, the tested form may be a part): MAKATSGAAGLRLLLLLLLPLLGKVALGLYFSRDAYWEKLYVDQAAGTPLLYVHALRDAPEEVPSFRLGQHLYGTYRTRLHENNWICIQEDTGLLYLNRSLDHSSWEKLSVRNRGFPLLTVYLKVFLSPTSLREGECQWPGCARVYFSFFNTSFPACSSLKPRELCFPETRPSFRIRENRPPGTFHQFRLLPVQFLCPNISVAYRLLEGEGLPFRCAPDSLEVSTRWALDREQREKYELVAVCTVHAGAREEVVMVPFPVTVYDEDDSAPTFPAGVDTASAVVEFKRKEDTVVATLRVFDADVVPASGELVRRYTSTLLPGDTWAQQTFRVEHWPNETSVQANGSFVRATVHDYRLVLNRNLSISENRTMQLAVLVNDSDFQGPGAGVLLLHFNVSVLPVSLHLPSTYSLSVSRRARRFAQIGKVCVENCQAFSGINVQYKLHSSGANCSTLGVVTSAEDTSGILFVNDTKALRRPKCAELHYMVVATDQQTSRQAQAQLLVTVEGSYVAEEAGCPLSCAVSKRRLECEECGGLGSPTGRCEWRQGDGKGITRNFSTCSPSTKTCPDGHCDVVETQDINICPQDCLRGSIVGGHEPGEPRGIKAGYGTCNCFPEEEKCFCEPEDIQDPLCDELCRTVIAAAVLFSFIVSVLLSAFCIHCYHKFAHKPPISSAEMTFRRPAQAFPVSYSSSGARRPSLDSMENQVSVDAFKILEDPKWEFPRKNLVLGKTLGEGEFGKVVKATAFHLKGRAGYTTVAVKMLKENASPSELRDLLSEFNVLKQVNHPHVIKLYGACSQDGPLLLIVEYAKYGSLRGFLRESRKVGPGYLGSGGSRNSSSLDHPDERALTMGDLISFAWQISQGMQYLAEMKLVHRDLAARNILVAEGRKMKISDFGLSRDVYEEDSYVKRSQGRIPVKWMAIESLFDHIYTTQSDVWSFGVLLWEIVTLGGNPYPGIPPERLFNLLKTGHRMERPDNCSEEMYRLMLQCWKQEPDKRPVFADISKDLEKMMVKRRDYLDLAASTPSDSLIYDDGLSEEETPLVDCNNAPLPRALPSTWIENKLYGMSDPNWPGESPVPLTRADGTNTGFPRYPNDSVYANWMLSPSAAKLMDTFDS

[23] = Half life in Sprague-Dawley rat at 100 mg/kg, ip up to 24 hrs post dose by LC/MS/MS analysis; assay type: ADME, organism-based; conditions: in vivo
[24] = target: Platelet-derived growth factor receptor beta (Homo sapiens, UniProt P09619); assay: Inhibition of human His-tagged PDGFRbeta (558 to 1106 residues) expressed in baculovirus by ELISA
[25] = system: Mast/stem cell growth factor receptor Kit (Homo sapiens), P10721 [D816V]
Sequence of Mast/stem cell growth factor receptor Kit (Homo sapiens), P10721 [D816V] (P10721 whole entry D816V): as the sequence (P10721 whole entry V559D) above, with D559V, D816V counted along it
Description: Inhibition of TEL-fused cKIT D816V mutant (unknown origin) expressed in mouse BAF3 cells assessed as cell growth inhibition after 72 hrs by cell titer-glo assay

[26] = MRT (0 to t) in Sprague-Dawley rat at 100 mg/kg, ip up to 24 hrs post dose by LC/MS/MS analysis; assay type: ADME, organism-based; conditions: in vivo
GIST882 = assay: Antiproliferative activity against human GIST882 cells assessed as cell growth inhibition after 72 hrs by cell titer-glo assay; assay type: functional; conditions: GIST882, 72 h
[27] = MRT (0 to infinity) in Sprague-Dawley rat at 100 mg/kg, ip up to 24 hrs post dose by LC/MS/MS analysis; assay type: ADME, organism-based; conditions: in vivo
[28] = system: Mast/stem cell growth factor receptor Kit (Homo sapiens), P10721 [V559D,T670I]
BaF3 = assay: Antitumor activity against mouse BAF3 cells harboring TEL-cKIT-T670I mutant allografted in nu/nu mouse assessed as tumor growth inhibition at 100 mg/kg, ip administered daily for 11 days relative to control; assay type: functional; conditions: 264 h, read-out: TGI
[29] = target: Mast/stem cell growth factor receptor Kit (Homo sapiens, UniProt P10721)
Description: Inhibition of TEL-fused cKIT (unknown origin) expressed in mouse BAF3 cells assessed as cell growth inhibition after 72 hrs by cell titer-glo assay

[30] = system: Mast/stem cell growth factor receptor Kit (Homo sapiens), P10721 [D816H]
Description: Inhibition of TEL-fused cKIT D816H mutant (unknown origin) expressed in mouse BAF3 cells assessed as cell growth inhibition after 72 hrs by cell titer-glo assay

Mus musculus = assay: Toxicity in nu/nu mouse allografted with mouse BAF3 cells harboring TEL-cKIT-T670I mutant assessed as change in body weight at 25 to 100 mg/kg, ip administered daily for 11 days relative to control; assay type: organism-based; conditions: in vivo, 264 h
K562 = assay: Antiproliferative activity against human K562 cells assessed as cell growth inhibition after 72 hrs by cell titer-glo assay; assay type: functional; conditions: K562, 72 h
[31] = Half life in Sprague-Dawley rat at 2 mg/kg, iv up to 24 hrs post dose by LC/MS/MS analysis; assay type: ADME, organism-based; conditions: in vivo
[32] = MRT (0 to infinity) in Sprague-Dawley rat at 25 mg/kg, ip up to 24 hrs post dose by LC/MS/MS analysis; assay type: ADME, organism-based; conditions: in vivo
[33] = AUC (0 to t) in Sprague-Dawley rat at 2 mg/kg, iv up to 24 hrs post dose by LC/MS/MS analysis; assay type: ADME, organism-based; parameters: dose 2 mg/kg, time < 24 hr, route intravenous; conditions: in vivo
[34] = Antiproliferative activity against human GIST48B cells assessed as cell growth inhibition after 72 hrs by cell titer-glo assay; assay type: functional

Cc1cc(NC(=O)Nc2ccc(-c3ccnc4[nH]nc(C)c34)cc2)ccc1N1CCOCC1
IC50 [1]: 160 nM | half-life at 1 µM [2]: 0.779 h | GI50 [3]: 136 nM | Cmax [4]: 1890 ng/mL | MRT last at 24 h [5]: 1.13 h | GI50 (MEG-01): 9090 nM | IC50 [6]: 2 nM | clearance [7]: 15.8 mL/min/kg | Vd [8]: 0.97 L/kg | IC50 [9]: 2280 nM | half-life [10]: 5.09 h | MRT last at 24 h [11]: 5.67 h | GI50 [12]: 135 nM | GI50 [13]: 96.5 nM | AUC(0-inf) [14]: 713 ng·h/mL | Cmax [15]: 117 ng/mL | GI50 (KU812 cell line): > 10000 nM | Tmax [16]: 4 h | IC50 [17]: > 40000 nM | AUC(0-inf) [18]: 2250 ng·h/mL | AUC(0-t) at 24 h [19]: 4250 ng·h/mL | GI50 [20]: 11.6 nM | GI50 [21]: 330 nM | IC50 [22]: > 1000 nM | half-life [23]: 11 h | IC50 [24]: < 1 nM | GI50 [25]: > 10000 nM | MRT last at 24 h [26]: 7.99 h | GI50 (GIST882): < 3 nM | MRT inf [27]: 14.8 h | GI50 [28]: 36.4 nM | inhibition in vivo at 100 mg/kg (BaF3): 41.9% | GI50 [29]: 18.1 nM | GI50 [30]: 134 nM | Activity (Mus musculus): Non-Toxic | GI50 (K562): > 10000 nM | half-life [31]: 0.69 h | MRT inf [32]: 6.48 h | AUC(0-t) at 24 h [33]: 2240 ng·h/mL | GI50 [34]: > 10000 nM

From ChEMBL document CHEMBL4011618, “Discovery of Potent, Selective Stem Cell Factor Receptor/Platelet Derived Growth Factor Receptor Alpha (c-KIT/PDGFRα) Dual Inhibitor for the Treatment of Imatinib-Resistant Gastrointestinal Stromal Tumors (GISTs)” (J Med Chem, 2017)
